Assay results as given in patent US20150224085A1, “METHOD OF ADMINISTERING A 5,5-FUSED HETEROARYLENE HEPATITIS C VIRUS INHIBITOR FOR TREATING OF PREVENTING HEPATITIS C VIRUS INFECTION” (priority 2012, published 2015).
Converted amounts (≈) assume the structure as drawn. Like-named read-outs stand apart in the source and are kept apart here.

Legend:
HCV Genotype 1a [1] = test: Phase I/IIa Group C: HCV RNA reduction, 3-day dosing, Genotype 1a; format: in vivo, hepatitis C virus
Procedure: (§1) The phase I/IIa study was designed to evaluate safety and tolerability, pharmacokinetics (PK), food effect, and antiviral activity with regard to the Compound. The key safety parameters that were evaluated in the trial include adverse events (AEs), physical examination, vital signs, 12-lead electrocardiogram (ECG), and standard safety laboratory tests. The key antiviral activity parameters that were evaluated in the trial include changes in plasma HCV RNA and emergence of resistance mutations. The key pharmacokinetic parameters that were evaluated in the trial include plasma and urine concentrations of the Compound.
(§2) In the phase I/IIa study, plasma HCV RNA was quantitated using a validated commercial assay (COBAS® TAQMAN®) with a lower limit of quantitation of 25 IU/mL. HCV RNA genotyping was performed at Baseline using the Versant HCV Genotype Assay (LiPA) 2.0.
(§3) In Group C, the Compound was evaluated in a randomized, double-blind, placebo-controlled, parallel dosing study in 34 treatment-naive, genotype 1 HCV-infected subjects.
(§4) For all cohorts, dosing was under fasted in this study.

[2] = test system: HCV Genotypes 1, 2, 3, and 4; test: Phase I/IIa Groups C and D: antiviral activity across genotypes; format: in vivo, hepatitis C virus
Procedure: as §1, §2, §3
(§5) In Group D, the Compound was evaluated in an randomized, double-blind, placebo-controlled, parallel dosing study in 30 treatment-naive, genotypes 2, 3, and 4 HCV-infected subjects.
as §4

HCV Genotype 1b [3] = test: Phase I/IIa Group C: HCV RNA reduction, 3-day dosing, Genotype 1b; format: in vivo, hepatitis C virus
Procedure: as §1, §2, §3, §4

[4] = in vivo
Procedure: as §1
The Compound was first evaluated in a randomized, double-blind, placebo-controlled, sequential dose escalation study in 48 healthy subjects. For each cohort, there were 6 subjects to receive the Compound and 2 subjects to receive placebo. Except cohort 5a, the Compound was administered under fasted conditions.
(§6) In Group B, the Compound was evaluated in an open-label, single day study in 18 subjects with chronic HCV Genotype 1, 2, or 3 infection. […] For all cohorts, dosing was under fasted in this study.

[5] = 28-day toxicity study in cynomolgus monkeys
Procedure: Safety margins were calculated based upon proposed human doses in the first-in-human trial and human equivalent dose (HED) calculations derived from the two 28-day toxicology studies in mice and monkeys. This approach is consistent with the United States Food and Drug Administration Guidance for Industry entitled “Estimating the Maximum Safe Starting Dose in Initial Clinical Trials for Therapeutics in Adult Healthy Volunteers,” July 2005.

[6] = test system: genotype 2 replicon with L31M substitution (NS5A M31); test: HCV replicon model, resistance; format: cell-based, hepatitis C virus
HCV Genotype 4 = test: Phase I/IIa Group D: HCV RNA reduction, 3-day dosing, Genotype 4; format: in vivo, hepatitis C virus; settings: n = 4
Procedure: as §1, §2, §5, §4

HCV Genotype 1b [7] = test: Phase I/IIa Group B: plasma HCV RNA reduction after single dose, Genotype 1b; format: in vivo, hepatitis C virus; settings: 1 subject
Procedure: as §1, §2, §6

clinical = settings: human, in vivo
Procedure: as §1, §2, §3, §5, §4

HCV Genotype 1a [8] = test: Phase I/IIa Group B: plasma HCV RNA reduction after single dose, Genotype 1a; format: in vivo, hepatitis C virus; settings: for Maximum Viral Load Reduction after Single Dose: 1 subject; for Mean maximum viral load reduction after Single Dose: 2 subjects
Procedure: as §1, §2, §6

[9] = Phase I/IIa Groups C and D: safety and tolerability; format: in vivo, human
Procedure: as §1, §3, §5, §4

[10] = test system: least susceptible HCV genotype; test: Protein-binding adjusted EC90; format: cell-based; settings: Hepatitis C virus, read-out: protein-binding adjusted EC90
HCV Genotype 2 = test: Phase I/IIa Group B: plasma HCV RNA reduction after single dose, Genotype 2; format: in vivo, hepatitis C virus; settings: 1 subject
Procedure: as §1, §2, §6

HCV Genotype 1, 2, and 3 = test: Phase I/IIa Group B: antiviral activity of single dose across genotypes; format: in vivo, hepatitis C virus; settings: Genotype 1, 2, and 3 HCV-infected subjects
Procedure: as §1, §2, §6

## COC(=O)N[C@H](C(=O)N1CCC[C@H]1c1nc2cc(-c3csc4c(-c5ccc(-c6cnc([C@@H]7CCCN7C(=O)[C@H](NC(=O)OC)c7ccccc7)[nH]6)cc5)csc34)ccc2[nH]1)C(C)C [the Compound, [(S)-1-((S)-2-{6-[6-(4-{(S)-2-[1-((R)-2-methoxycarbonylamino-2-phenyl-acetyl)-pyrrolidin-2-yl]-3H-imidazol-4-yl}-phenyl)-thieno[3,2-b]thiophen-3-yl]-1H-benzoimidazol-2-yl}-pyrrolidine-1-carbonyl)-2-methyl-propyl]-carbamic acid methyl ester]
HCV Genotype 1a [1]; 25 mg QD x 3 days, n = 5
  Mean (Range) Maximal HCV RNA Reduction from Baseline: 3.3 (2.9-3.7) log10 IU/mL
HCV Genotype 1a [1]; 50 mg BID x 3 days, n = 6
  Mean (Range) Maximal HCV RNA Reduction from Baseline: 3.2 (2.7-3.8) log10 IU/mL
HCV Genotype 1a [1]; 50 mg QD x 3 days, n = 6
  Mean (Range) Maximal HCV RNA Reduction from Baseline: 3.6 (3.3-3.9) log10 IU/mL
HCV Genotype 1a [1]; 100 mg QD x 3 days, n = 6
  Mean (Range) Maximal HCV RNA Reduction from Baseline: 3.5 (2.6-4.3) log10 IU/mL
[2]; Genotype 1, 2, 3, and 4 HCV-infected subjects
  antiviral activity: potent, pan-genotypic antiviral activity
[2]; during the 3 days of dosing
  rebound (>1.0 log10 IU/mL increase over nadir): No subject experienced a rebound
[2]; total dose of 100 mg/day for 3 days, Genotypes 1, 3, and 4
  mean maximal HCV RNA reductions: approximately 3.5 log10 IU/mL
HCV Genotype 1b [3]; 25 mg QD x 3 days, n = 3
  Mean (Range) Maximal HCV RNA Reduction from Baseline: 3.0 (2.0-4.2) log10 IU/mL
HCV Genotype 1b [3]; 50 mg QD x 3 days, n = 2
  Mean (Range) Maximal HCV RNA Reduction from Baseline: 4.3 (4.1-4.5) log10 IU/mL
[4]
  dose-limiting toxicity: no subject met protocol-defined criteria for a dose-limiting toxicity
  intensity of adverse events: mild to moderate
[5]; 28-day monkey study
  no observable effect level (NOEL): 250 mg/kg/day
[5]; 28 days, doses up to 250 mg/kg/day
  toxicological target: did not define any toxicological target
[5]; cynomolgus monkey, in vivo
  increase in plasma levels with dose: little or no increase
[5]; proposed human dose 1 mg/subject/day (0.02 mg/kg/day)
  Margin of Safety, Monkey: 807 fold
[5]; proposed human dose 5 mg/subject/day (0.08 mg/kg/day)
  Margin of Safety, Monkey: 204 fold
[5]; proposed human dose 10 mg/subject/day (0.17 mg/kg/day)
  Margin of Safety, Monkey: 95 fold
[5]; proposed human dose 25 mg/subject/day (0.42 mg/kg/day)
  Margin of Safety, Monkey: 38 fold
[5]; proposed human dose 50 mg/subject/day (0.83 mg/kg/day)
  Margin of Safety, Monkey: 19 fold
[6]
  resistance conferred by L31M substitution (NS5A M31 polymorphism): 75 fold
HCV Genotype 4; 50 mg BID x 3 days
  Mean (Range) Maximal HCV RNA Reduction from Baseline: 3.9 (3.4-4.5) log10 IU/mL
HCV Genotype 4; 100 mg QD x 3 days
  Mean (Range) Maximal HCV RNA Reduction from Baseline: 3.6 (2.3-4.6) log10 IU/mL
HCV Genotype 1b [7]; 1 mg single dose
  Maximum Viral Load Reduction after Single Dose: 3.1^2 log10 IU/mL
HCV Genotype 1b [7]; 10 mg single dose
  Maximum Viral Load Reduction after Single Dose: 3.7^2 log10 IU/mL
HCV Genotype 1b [7]; 50 mg single dose
  Maximum Viral Load Reduction after Single Dose: 3.2^2 log10 IU/mL
HCV Genotype 1b [7]; 100 mg single dose
  Maximum Viral Load Reduction after Single Dose: 3.7^2 log10 IU/mL
clinical; 25 mg
  AUC0-24: 0.235 ± 0.0799 µg·h/mL
  Cmax: 0.02 ± 0.00674 µg/mL
  Tmax: 3.9 (3.0-6.0) hr
clinical; 25 mg, AUC0-24
  AUC(0-t): 0.142 ± 0.0445 µg·h/mL
clinical; 25 mg, Cmax
  Cmax: 0.014 ± 0.00519 µg/mL
clinical; 25 mg, Tmax
  Tmax: 3.8 h
clinical; 25 mg, t1/2
  half-life: 20.8 ± 4.06 h
clinical; 50 mg
  AUC(0-t): 0.384 ± 0.204 µg·h/mL
  t1/2: 19.7 ± 2.0 h
clinical; 50 mg, AUC0-12
  AUC(0-t): 0.26 ± 0.102 µg·h/mL
clinical; 50 mg, AUC0-24
  AUC(0-t): 0.387 ± 0.115 µg·h/mL
clinical; 50 mg, Cmax
  Cmax: 0.032 ± 0.00812 µg/mL
clinical; 50 mg, Tmax
  Tmax: 3.4 h
clinical; 50 mg, t1/2
  half-life: 23 ± 3.81 h
clinical; 100 mg
  t1/2: 19.3 ± 2.69 h
clinical; 100 mg, AUC0-24
  AUC(0-t): 0.41 ± 0.122 µg·h/mL
clinical; 100 mg, Cmax
  Cmax: 0.038 ± 0.0086 µg/mL
clinical; 100 mg, Tmax
  Tmax: 3.7 h
clinical; 100 mg, t1/2
  half-life: 22.9 ± 3.6 h
clinical; Plasma half-life
  half-life: ~20 h
clinical; Tmax
  Tmax: 3.3 h
clinical; t1/2
  half-life: 19.7 ± 5.7 h
HCV Genotype 1a [8]; 1 mg single dose
  Maximum Viral Load Reduction after Single Dose: 0.8^2 log10 IU/mL
HCV Genotype 1a [8]; 5 mg single dose
  Mean maximum viral load reduction after Single Dose: 2.6^1 log10 IU/mL
HCV Genotype 1a [8]; 10 mg single dose
  Maximum Viral Load Reduction after Single Dose: 2.9^2 log10 IU/mL
HCV Genotype 1a [8]; 25 mg single dose
  Mean maximum viral load reduction after Single Dose: 3.7^1 log10 IU/mL
HCV Genotype 1a [8]; 50 mg single dose
  Maximum Viral Load Reduction after Single Dose: 2.5^2 log10 IU/mL
HCV Genotype 1a [8]; 100 mg single dose
  Maximum Viral Load Reduction after Single Dose: 3.3^2 log10 IU/mL
[9]; Groups C and D
  intensity of adverse events: mild or moderate
  most common adverse events: headache, constipation, and nausea
[9]; Groups C and D, 25 to 100 mg/day x 3 days
  discontinuations and serious adverse events: no safety-related discontinuations or serious adverse events
[9]; daily doses up to 100 mg for 3 days
  safety and tolerability: safe and well tolerated
[10]
  EC90: ~2.3 ng/mL (≈ 2.6 nM)
HCV Genotype 2; 25 mg single dose
  Maximum Viral Load Reduction after Single Dose: 0.4 log10 IU/mL
HCV Genotype 2; 50 mg single dose
  Maximum Viral Load Reduction after Single Dose: 3.2 log10 IU/mL
HCV Genotype 2; 100 mg single dose
  Maximum Viral Load Reduction after Single Dose: 3.5 log10 IU/mL
HCV Genotype 1, 2, and 3
  antiviral activity: potent pan-genotypic antiviral activity
